Measurements as given in ChEMBL document CHEMBL1131873, “Induction of erythroid differentiation of human K562 cells by 3-O-acyl-1,2-O-isopropylidene-D-glucofuranose derivatives” (Bioorg Med Chem Lett, 1999).
Each block holds one molecule with its values, some of them ahead of it.

What was measured:
K562 [1] = test: In vitro inhibition of cell growth against human myeloid leukemia K562(S) cells; type: functional, cell-based
K562 [2] = test: Maximum level of percentage of benzidine-positive (hemoglobin-containing) K562 cells reached with in 9 days at 4 mM concentration; type: functional, Homo sapiens
K562 [3] = test: Maximum level of percentage of benzidine-positive (hemoglobin-containing) K562 cells reached with in 9 days at 3 mM concentration; type: functional, Homo sapiens
K562 [4] = test: Inhibition of cell growth against human myeloid leukemia K562(S) cells; type: functional, cell-based
K562 [5] = test: Evaluated for erythroid induction of benzidine-positive K562 cells at concentration 2 mM after 9 day induction period; type: functional, Homo sapiens
K562 [6] = test: Compound was evaluated for erythroid induction of benzidine-positive K562 cells at concentration 1 mM after 9 day induction period; type: functional, Homo sapiens
K562 [7] = test: Compound was evaluated for erythroid induction of benzidine-positive K562 cells at concentration 4 mM after 9 day induction period; type: functional, Homo sapiens
K562 [8] = test: Compound was evaluated for erythroid induction of benzidine-positive K562 cells at concentration 3 mM after 9 day induction period; type: functional, Homo sapiens
K562 [9] = test: Evaluated for erythroid induction of benzidine-positive K562 cells at concentration 3 mM; type: functional, Homo sapiens
K562 [10] = test: Effect of compound on erythroid differentiation of K562 cells was determined after a period of 5 days at concentration 4 mM; type: functional, Homo sapiens
K562 [11] = test: Effect of compound on erythroid differentiation of K562 cells was determined after a period of 3 days at concentration 4 mM; type: functional, Homo sapiens
K562 [12] = test: Effect of compound on erythroid differentiation of K562 cells was determined after a period of 9 days at concentration 4 mM; type: functional, Homo sapiens
K562 [13] = test: Effect of compound on erythroid differentiation of K562 cells was determined after a period of 7 days at concentration 4 mM; type: functional, Homo sapiens
K562 [14] = test: Compound was evaluated for erythroid induction of benzidine-positive K562 cells at concentration 5 mM after 9 day induction period; type: functional, Homo sapiens
K562 [15] = test: Compound was evaluated for erythroid induction of benzidine-positive K562 cells at concentration 4 mM; type: functional, Homo sapiens
K562 [16] = test: Compound (2 mM) was evaluated for maximum level of percentage of benzidine-positive (hemoglobin-containing) K562 cells in the presence of retinoic acid (5 uM); type: functional, Homo sapiens
K562 [17] = test: Compound (2 mM) was evaluated for maximum level of percentage of benzidine-positive (hemoglobin-containing) K562 cells in the presence of ara-C (25 nM); type: functional, Homo sapiens
K562 [18] = test: Compound (2 mM) was evaluated for maximum level of percentage of benzidine-positive (hemoglobin-containing) K562 cells in the presence of mithramycin (5 nM); type: functional, Homo sapiens
K562 [19] = test: Compound was evaluated for erythroid induction of benzidine-positive K562 cells at concentration 5 mM; type: functional, Homo sapiens
K562 [20] = test: Compound (2 mM) was evaluated for maximum level of percentage of benzidine-positive (hemoglobin-containing) K562 cells in the presence of retinoic acid (5 µM)
K562 [21] = test: Effect of compound on erythroid differentiation of K562 cells was determined after a period of 5 days at concentration 500 nM; type: functional, Homo sapiens
K562 [22] = test: Effect of compound on erythroid differentiation of K562 cells was determined after a period of 9 days at concentration 500 nM; type: functional, Homo sapiens
K562 [23] = test: Effect of compound on erythroid differentiation of K562 cells was determined after a period of 7 days at concentration 500 nM; type: functional, Homo sapiens
K562 [24] = test: Effect of compound on erythroid differentiation of K562 cells was determined after a period of 3 days at concentration 500 nM; type: functional, Homo sapiens
K562 [25] = test: Effect of compound on erythroid differentiation of K562 cells was determined after a period of 7 days at concentration 20 nM; type: functional, Homo sapiens
K562 [26] = test: Effect of compound on erythroid differentiation of K562 cells was determined after a period of 9 days at concentration 20 nM; type: functional, Homo sapiens
K562 [27] = test: Effect of compound on erythroid differentiation of K562 cells was determined after a period of 3 days at concentration 20 nM; type: functional, Homo sapiens
K562 [28] = test: The compound was evaluated for inhibition of cell growth against human myeloid leukemia K562(S) cells; type: functional, cell-based
K562 [29] = test: Effect of compound on erythroid differentiation of K562 cells was determined after a period of 5 days at concentration 20 nM; type: functional, Homo sapiens

Structure (SMILES): CC1(C)OCC(C2OC3OC(C)(C)OC3C2O)O1 (stereo not drawn)
IC50 (K562 [1]): 2.8 mM | Erythroid induction (K562 [2]): 18% | Erythroid induction (K562 [3]): 26%

Structure (SMILES): CCCCC(=O)OC1C(C(O)CO)OC2OC(C)(C)OC21 (stereo not drawn)
Erythroid induction (K562 [7]): 25% | IC50 (K562 [4]): 2 mM | Erythroid induction (K562 [8]): 28% | Erythroid induction (K562 [5]): 24%

Structure (SMILES): CC(C)C(=O)O
Erythroid induction (K562 [9]): 14% | IC50 (K562 [4]): 4.8 mM | Erythroid induction (K562 [10]): 14% | Erythroid induction (K562 [11]): 12% | Erythroid induction (K562 [12]): 8% | Erythroid induction (K562 [13]): 12%

Structure (SMILES): CCC(=O)OC1C(C(O)CO)OC2OC(C)(C)OC21 (stereo not drawn)
Erythroid induction (K562 [7]): 25% | IC50 (K562 [4]): 2.4 mM | Erythroid induction (K562 [8]): 19.6% | Erythroid induction (K562 [5]): 21%

Structure (SMILES): CC(C)(C)CC(=O)OC1C(C(O)CO)OC2OC(C)(C)OC21 (stereo not drawn)
IC50 (K562 [4]): 1.2 mM | Erythroid induction (K562 [5]): 20%

Structure (SMILES): CC1(C)OC2OC(C(O)CO)C(OC(=O)C3CCCC3)C2O1 (stereo not drawn)
Erythroid induction (K562 [7]): 16.8% | IC50 (K562 [4]): 2.5 mM | Erythroid induction (K562 [8]): 7% | Erythroid induction (K562 [14]): 8%

Structure (SMILES): CC1(C)OC2OC(C(O)CO)C(OC(=O)C(C)(C)C)C2O1 (stereo not drawn)
Erythroid induction (K562 [9]): 51.7% | Erythroid induction (K562 [15]): 50.2% | Erythroid induction (K562 [16]): 67% | IC50 (K562 [4]): 1.5 mM | Erythroid induction (K562 [10]): 25% | Erythroid induction (K562 [11]): 22% | Erythroid induction (K562 [17]): 90% | Erythroid induction (K562 [18]): 34% | Erythroid induction (K562 [12]): 59% | Erythroid induction (K562 [13]): 50.7%

Structure (SMILES): CC(C)C(=O)OC1C(C(O)CO)OC2OC(C)(C)OC21 (stereo not drawn)
Erythroid induction (K562 [9]): 43% | Erythroid induction (K562 [15]): 54.2% | Erythroid induction (K562 [19]): 59% | IC50 (K562 [4]): 2.5 mM | Erythroid induction (K562 [10]): 35% | Erythroid induction (K562 [11]): 20% | Erythroid induction (K562 [17]): 78% | Erythroid induction (K562 [12]): 50% | Erythroid induction (K562 [20]): 55.8% | Erythroid induction (K562 [13]): 56.8%

Structure (SMILES): CC(=O)OC1C(C(O)CO)OC2OC(C)(C)OC21 (stereo not drawn)
IC50 (K562 [4]): 3.8 mM | Erythroid induction (K562 [2]): 27%

Structure (SMILES): CCCC(=O)O [BUTYRIC ACID]
Erythroid induction (K562 [9]): 35% | IC50 (K562 [4]): 2.4 mM

Structure (SMILES): CC(C)(C)C(=O)O [PIVALATE]
Erythroid induction (K562 [9]): 12% | IC50 (K562 [4]): 4.5 mM | Erythroid induction (K562 [10]): 9% | Erythroid induction (K562 [11]): 4% | Erythroid induction (K562 [12]): 6% | Erythroid induction (K562 [13]): 11%

Structure (SMILES): CO[C@H](C(=O)[C@@H](O)[C@@H](C)O)[C@@H]1Cc2cc3cc(O[C@H]4C[C@@H](O[C@@H]5C[C@@H](O)[C@H](O)[C@@H](C)O5)[C@H](O)[C@@H](C)O4)c(C)c(O)c3c(O)c2C(=O)[C@H]1O[C@H]1C[C@@H](O[C@@H]2C[C@@H](O)[C@@H](O[C@@H]3C[C@](C)(O)[C@H](O)[C@@H](C)O3)[C@@H](C)O2)[C@H](O)[C@@H](C)O1 [PLICAMYCIN]
Erythroid induction (K562 [9]): 81% | Erythroid induction (K562 [25]): 75% | Erythroid induction (K562 [26]): 80% | Erythroid induction (K562 [27]): 15% | IC50 (K562 [28]): 10 nM | Erythroid induction (K562 [29]): 55%

Structure (SMILES): CCC(=O)O [PROPIONIC ACID]
Erythroid induction (K562 [7]): 10% | IC50 (K562 [4]): 4 mM

Further molecules by falling IC50 (K562 [4]), results first:

IC50 (K562 [4]): 1.2 mM
Structure (SMILES): CCCCCC(=O)OC1C(C(O)CO)OC2OC(C)(C)OC21 (stereo not drawn)
Erythroid induction (K562 [5]): 21% | Erythroid induction (K562 [6]): 10.3%

IC50 (K562 [4]): 1 mM
Structure (SMILES): CC(C)CC(=O)OC1C(C(O)CO)OC2OC(C)(C)OC21 (stereo not drawn)
Erythroid induction (K562 [5]): 12%

IC50 (K562 [4]): 0.8 mM
Structure (SMILES): CCCC(=O)OC1C(C(O)CO)OC2OC(C)(C)OC21 (stereo not drawn)
Erythroid induction (K562 [5]): 25.4%

IC50 (K562 [4]): 0.5 mM
Structure (SMILES): CC(CC(=O)OC1C(C(O)CO)OC2OC(C)(C)OC21)c1ccccc1 (stereo not drawn)
Erythroid induction (K562 [6]): 15%

IC50 (K562 [4]): 0.5 mM
Structure (SMILES): CC1(C)OC2OC(C(O)CO)C(OC(=O)CC(c3ccccc3)c3ccccc3)C2O1 (stereo not drawn)
Erythroid induction (K562 [6]): 14%

IC50 (K562 [4]): 0.0005 mM
Structure (SMILES): Nc1ccn([C@@H]2O[C@H](CO)[C@@H](O)[C@@H]2O)c(=O)n1 [CYTARABINE]
Erythroid induction (K562 [9]): 95% | Erythroid induction (K562 [21]): 61.5% | Erythroid induction (K562 [22]): 93.2% | Erythroid induction (K562 [23]): 84.5% | Erythroid induction (K562 [24]): 45%
